Laboratory results taken from patent US11299480B2, “2-arylsulfonamido-N-arylacetamide derivatized STAT3 inhibitors” (University of Hawaii, priority 2017, dated 2022).
Like-named read-outs stand apart in the source and are kept apart here.

Assays:
[1] = Aqueous solubility (PBS, SGF, SIF)
in vitro [2] = conditions: mouse, liver microsomes
in vitro [3] = conditions: human, liver microsomes
Caco-2 cells = assay: Cell membrane permeability, Caco-2 cells assay; conditions: for Caco-2 Cells Permeability A to B / Caco-2 Cells Recovery A to B: apical to basolateral; for Caco-2 Cells Permeability A to B / Caco-2 Cells Permeability B to A: first number of cell, 10^−6 cm/sec; for Caco-2 Cells Recovery A to B / Caco-2 Cells Recovery B to A: second number of cell; for Caco-2 Cells Permeability B to A / Caco-2 Cells Recovery B to A: basolateral to apical
[4] = Mouse liver microsomal (MLM) metabolic stability; conditions: mouse, liver microsomes
[5] = Human liver microsomal (HLM) metabolic stability; conditions: liver microsomes
in vitro [6] = conditions: human, Caco-2
Stat3 [7] = target: Stat3 (Homo sapiens (Human), UniProt P40763); assay: Stat3 DNA-binding activity in nuclear extracts of treated MDA-MB-231 cells, EMSA; type: cell-based; conditions: 10 μM
Procedure: (§1) FIG. 3. Effects of select compounds of the present invention on Stat3 DNA-binding activity and Stat3 tyrosine phosphorylation in cells. (FIG. 3A) EMSA analysis of Stat3 DNA-binding activity in nuclear extracts of equal total protein prepared from cells treated with DMSO (0 as control, Con), 5 or 10 μM of compounds for 1-34 h. Positions of Stat3:DNA complexes in gel are labeled. […] Positions of Stat3:DNA complexes or proteins in gel are shown; control (0 or Con) lane represents whole-cell lysates or nuclear extracts prepared from 0.05% DMSO-treated cells. […] Data are representative of 2-3 independent determinations.
The ^32P-labeled oligonucleotide probes used were hSIE (high affinity sis-inducible element from the c-fos gene, m67 variant, 5′-[…]) (SEQ ID NO: 1) that binds Stat1 and Stat3 and MGFe (mammary gland factor element from the bovine β-casein gene promoter, 5′-[…]) (SEQ ID NO: 2) for Stat1 and Stat5 binding. Except where indicated, nuclear extracts were pre-incubated with compound for 30 min at room temperature prior to incubation with the radiolabeled probe for 30 min at 30° C. before subjecting to EMSA analysis. Where appropriate, bands corresponding to Stat3:DNA complexes were scanned and quantified for each concentration of compound using ImageJ and plotted as percent of control (DMSO) against concentration of compound, from which the IC50 values were derived.
Select compounds of the invention were investigated for their inhibitory effects of the active analogs on intracellular Stat3 signaling. […] Nuclear extracts were prepared and subjected to EMSA analysis for Stat3 DNA-binding activity. […] Stat3 DNA-binding activity in MDA-MB-231 cells was inhibited by both Examples 1 and 5 following treatment at 3 h, with little change at 1 h (FIG. 3A).

Stat1 = Stat1 DNA-binding activity in vitro, EMSA (MGFe probe); type: biochemical; conditions: 10 μM or 0-30 μM compound
From the text: FIG. 2. Effects of select compounds of the present invention on Stat1 and Stat5 DNA-binding activity. […] Positions of Stat:DNA complexes in gel are labeled; control lanes (0 or Con) represent nuclear extracts pre-treated with 10% DMSO. Data are representative of 1-3 independent determinations. […] Where appropriate, bands corresponding to Stat3:DNA complexes were scanned and quantified for each concentration of compound using ImageJ and plotted as percent of control (DMSO) against concentration of compound, from which the IC50 values were derived. In order to determine the specificity of select new analogs active against Stat3 activity, the inventors investigated the effects on the inhibition of other STAT family members, including Stat1 and Stat5 DNA-binding activity in vitro.

Stat3 [8] = target: Stat3 (Mus musculus, UniProt P42227); type: biochemical
Procedure: FIG. 1. Effect of select compounds of the present invention on Stat3 DNA-binding activity in vitro. […] Positions of Stat3:DNA complexes in gel are labeled; control lanes (0) represent nuclear extracts pre-treated with 10% DMSO.
Except where indicated, nuclear extracts were pre-incubated with compound for 30 min at room temperature prior to incubation with the radiolabeled probe for 30 min at 30° C. before subjecting to EMSA analysis. Where appropriate, bands corresponding to Stat3:DNA complexes were scanned and quantified for each concentration of compound using ImageJ and plotted as percent of control (DMSO) against concentration of compound, from which the IC50 values were derived.

pY705Stat3 [9] = assay: Constitutive Stat3 tyrosine phosphorylation, immunoblot, MDA-MB-468 cells; type: cell-based, human; conditions: MDA-MB-468, 5 μM, 1 h treatment (inhibition stated only for MDA-MB-231)
Procedure: as §1
(§2) All antibodies tested were purchased from Cell Signaling Technology.
(§3) Altogether, the new analogs show strong, albeit variable degrees of inhibition of constitutive Stat3 DNA-binding activity and Tyr phosphorylation in human tumor cells.

MDA-MB-231 = assay: CyQuant cell viability assay, MDA-MB-231; type: cell-based, human; conditions: MDA-MB-231, CyQuant, 0-10 μM, 72 h
Procedure: (§4) FIG. 6. Effects of select compounds of the present invention on cell viability. […] Cells were first grown in 6-well plates then were treated once with 0-10 μM of the indicated compounds for 72 h. Viable cells were assayed using CyQuant cell proliferation kit and plotted as % cell viability against concentration. Control (0) represents 0.05% DMSO-treated cells. Values, mean ± S.D. of 2-3 independent determinations.
(§5) Cells in 6-well or 96-well plates were treated with or without compounds for the indicated concentrations and time, and subjected to MTT assay or CyQuant cell proliferation assay (Invitrogen/ThermoFisher Scientific), or harvested and the viable cells were counted by trypan blue exclusion with phase-contrast microscopy.
(§6) Constitutive Stat3 activity promotes tumor cell growth and proliferation and survival (Darnell J E (2005) Nat Med. 11:595-6; Bowman T, et al., (2000) Oncogene 19:2474-2488). Some of the compounds of the present invention were tested against tumor cells harboring constitutively-active Stat3.

MCF7 = assay: CyQuant cell viability assay, MCF7; type: cell-based, human; conditions: MCF7 (no aberrantly-active Stat3), CyQuant, 72 h
Procedure: as §4, §5, §6

MDA-MB-468 = assay: CyQuant cell viability assay, MDA-MB-468; type: cell-based, human; conditions: MDA-MB-468, CyQuant, 0-10 μM, 72 h
Procedure: as §4, §5, §6

pY705Stat3 [10] = assay: Constitutive Stat3 tyrosine phosphorylation, immunoblot, MDA-MB-231 cells; type: cell-based, human; conditions: MDA-MB-231, 5 μM, 1 h treatment
Procedure: as §1, §2, §3

Stat5 = Stat5 DNA-binding activity in vitro, EMSA (MGFe probe); type: biochemical; conditions: 10 μM or 0-30 μM compound
From the text: FIG. 2. […] Positions of Stat:DNA complexes in gel are labeled; control lanes (0 or Con) represent nuclear extracts pre-treated with 10% DMSO. […] Where appropriate, bands corresponding to Stat3:DNA complexes were scanned and quantified for each concentration of compound using ImageJ and plotted as percent of control (DMSO) against concentration of compound, from which the IC50 values were derived.

[11] = simulated gastric fluid (SGF), pH 1.2, simulated gastric fluid
[12] = Stat3 DNA-binding activity in vitro, nuclear extracts pre-incubated with compound 30 min at room temperature, hSIE probe, read-out: EMSA IC50

Sequence of Stat3 (Homo sapiens (Human), UniProt P40763) (P40763 whole entry): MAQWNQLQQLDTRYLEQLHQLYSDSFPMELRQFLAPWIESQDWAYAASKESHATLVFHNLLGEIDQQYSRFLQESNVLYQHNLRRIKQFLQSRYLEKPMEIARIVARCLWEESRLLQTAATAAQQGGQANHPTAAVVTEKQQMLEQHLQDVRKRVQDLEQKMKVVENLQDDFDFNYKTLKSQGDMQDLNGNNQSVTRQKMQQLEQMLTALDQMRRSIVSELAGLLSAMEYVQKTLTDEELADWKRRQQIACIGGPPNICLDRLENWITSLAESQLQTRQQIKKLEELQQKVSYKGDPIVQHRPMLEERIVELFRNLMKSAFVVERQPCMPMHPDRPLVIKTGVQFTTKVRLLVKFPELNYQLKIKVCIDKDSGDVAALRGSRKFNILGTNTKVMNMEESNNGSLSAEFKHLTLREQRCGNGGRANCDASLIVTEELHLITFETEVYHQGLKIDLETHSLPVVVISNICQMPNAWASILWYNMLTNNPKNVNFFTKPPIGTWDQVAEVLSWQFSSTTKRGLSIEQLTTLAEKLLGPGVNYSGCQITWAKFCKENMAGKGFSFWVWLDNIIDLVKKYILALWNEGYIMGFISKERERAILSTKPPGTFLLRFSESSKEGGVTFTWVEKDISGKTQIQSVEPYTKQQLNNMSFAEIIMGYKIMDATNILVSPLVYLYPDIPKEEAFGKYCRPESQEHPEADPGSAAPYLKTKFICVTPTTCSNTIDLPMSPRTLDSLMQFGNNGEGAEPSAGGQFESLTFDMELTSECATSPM
Sequence of Stat3 (Mus musculus, UniProt P42227) (P42227 2-770 limits assumed): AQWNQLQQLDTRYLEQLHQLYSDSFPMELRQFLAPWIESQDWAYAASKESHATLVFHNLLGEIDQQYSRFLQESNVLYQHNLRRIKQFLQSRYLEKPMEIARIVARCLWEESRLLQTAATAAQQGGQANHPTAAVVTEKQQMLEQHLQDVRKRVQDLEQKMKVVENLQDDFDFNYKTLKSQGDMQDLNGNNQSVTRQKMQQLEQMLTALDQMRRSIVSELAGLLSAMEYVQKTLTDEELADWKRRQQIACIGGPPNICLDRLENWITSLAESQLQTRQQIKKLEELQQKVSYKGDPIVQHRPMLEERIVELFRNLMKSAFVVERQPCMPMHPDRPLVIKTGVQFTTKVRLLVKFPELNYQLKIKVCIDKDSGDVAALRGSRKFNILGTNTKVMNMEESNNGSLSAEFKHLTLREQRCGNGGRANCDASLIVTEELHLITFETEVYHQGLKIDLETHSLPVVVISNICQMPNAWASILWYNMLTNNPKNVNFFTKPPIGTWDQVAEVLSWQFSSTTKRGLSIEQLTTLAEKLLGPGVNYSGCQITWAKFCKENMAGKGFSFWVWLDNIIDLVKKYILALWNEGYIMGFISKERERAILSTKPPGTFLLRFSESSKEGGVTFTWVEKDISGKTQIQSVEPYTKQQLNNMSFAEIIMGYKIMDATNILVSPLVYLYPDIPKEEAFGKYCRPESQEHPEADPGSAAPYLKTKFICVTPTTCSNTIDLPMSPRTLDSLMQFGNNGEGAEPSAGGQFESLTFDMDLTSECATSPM

## C[C@H](C(=O)N(Cc1ccc(C2CCCCC2)cc1)c1ccc(C(=O)[O-])c(O)c1)N(C)S(=O)(=O)c1c(F)c(F)c(F)c(F)c1F.[Na+]
[1]
  solubility in PBS buffer pH 7.4: 127 μg/mL
  solubility in simulated intestinal fluid (SIF): 0.127 mg/mL
[1]; PBS buffer pH 7.4
  Solubility PBS: 127 micrograms/milliliter
[1]; simulated intestinal fluid
  Solubility SIF: 127 micrograms/milliliter
In vitro [2]
  half-life: ≤ 5 min
physchem; [11]
  solubility: 0.0013 mg/mL
In vitro [3]
  half-life: ≤ 5 min
Caco-2 cells
  Caco-2 Cells Permeability A to B: 0
  Caco-2 Cells Recovery A to B: 6%
  Caco-2 Cells Permeability B to A: 0
  Caco-2 Cells Recovery B to A: 2%
Caco-2 cells; compounds with cyclohexyl group instead of THP ring
  Caco-2 permeability: no appreciable permeability
[4]
  Metabolic Stability Half-Life MLM: 5 min
[5]
  Metabolic Stability Half-Life HLM: 4 min

## O=C([O-])c1ccc(N(Cc2ccc(C3CCOCC3)cc2)C(=O)[C@H]2CCCN2S(=O)(=O)c2c(F)c(F)c(F)c(F)c2F)cc1O.[Na+]
In vitro [6]
  Papp: 1 nm/s
In vitro [2]
  half-life: 18 min
physchem; PBS buffer, pH 7.4, aqueous buffer
  solubility: 0.132 mg/mL
physchem; [11]
  solubility: 0.0004 mg/mL
physchem; simulated intestinal fluid (SIF), fassgf or other biorelevant
  solubility: 0.129 mg/mL
In vitro [3]
  half-life: 15 min
Caco-2 cells
  Caco-2 Cells Permeability A to B: 0.2
  Caco-2 Cells Recovery A to B: 34%
  Caco-2 Cells Permeability B to A: 0.2
  Caco-2 Cells Recovery B to A: 60%

## C[C@@H](C(=O)N(Cc1ccc(C2CCCCC2)cc1)c1ccc(C(=O)O)c(O)c1)N(C)S(=O)(=O)c1c(F)c(F)c(F)c(F)c1F [Example 5, (S)-4-(N-(4-Cyclohexylbenzyl)-2-((2,3,4,5,6-pentafluoro-N-methylphenyl)sulfonamido)propan-amido)-2-hydroxybenzoic acid]
Stat3 [7]; 1 h treatment
  Stat3 DNA-binding activity in MDA-MB-231 cells: little change
Stat3 [7]; 3 h treatment
  Stat3 DNA-binding activity in MDA-MB-231 cells: inhibited
Stat3 [7]; 24 h treatment
  Stat3 DNA-binding activity in MDA-MB-231 cells: inhibited
Stat1
  effect on Stat1 DNA-binding activity: inhibited Stat1 activity to a moderate extent

## O=C(O)c1ccc(N(Cc2ccc(C3CCCCC3)cc2)C(=O)[C@H]2CCCN2S(=O)(=O)c2c(F)c(F)c(F)c(F)c2F)cc1O [Example 25, (R)-4-(N-(4-Cyclohexylbenzyl)-1-((pentafluorophenyl)sulfonyl)pyrrolidine-2-carboxamido)-2-hydroxybenzoic acid]
Stat3 [8]; EMSA, read-out: IC50, inhibition of Stat3 DNA-binding activity in vitro
  IC50: 2.4 µM
Stat3 [8]; [12]
  IC50: 2.4 ± 0.4 µM
pY705Stat3 [9]
  pY705Stat3 levels: only inhibited pY705Stat3 levels in MDA-MB-231
MDA-MB-231
  cell viability: suppressed the viability
MCF7
  cell viability: only weakly or not inhibited
MDA-MB-468
  cell viability: suppressed the viability
pY705Stat3 [10]
  pY705Stat3 levels: inhibited pY705Stat3 levels

## O=C(O)c1ccc(N(Cc2ccc(C3CCCCC3)cc2)C(=O)[C@@H]2CCCN2S(=O)(=O)c2c(F)c(F)c(F)c(F)c2F)cc1O [Example 26, (S)-4-(N-(4-Cyclohexylbenzyl)-1-((pentafluorophenyl)sulfonyl)pyrrolidine-2-carboxamido)-2-hydroxybenzoic acid]
Stat3 [8]; [12]
  IC50: 7.2 ± 3.4 µM
pY705Stat3 [9]
  pY705Stat3 levels: only inhibited pY705Stat3 levels in MDA-MB-231
pY705Stat3 [10]
  pY705Stat3 levels: inhibited pY705Stat3 levels

## C[C@H](C(=O)N(Cc1ccc(C2CCOCC2)cc1)c1ccc(C(=O)O)c(O)c1)N(C)S(=O)(=O)c1c(F)c(F)c(F)c(F)c1F [Example 57, (R)-2-Hydroxy-4-(2-((2,3,4,5,6-pentafluoro-N-methylphenyl)sulfonamido)-N-(4-(tetrahydro-2H-pyran-4-yl)benzyl)propanamido)benzoic acid]
Stat3 [8]; [12]
  IC50: 5 ± 0.8 µM
Stat5
  effect on Stat5 DNA-binding activity: minimum effect

## C[C@H](C(=O)N(Cc1ccc(C2CCOCC2)cc1)c1ccc(C(=O)[O-])c(O)c1)N(C)S(=O)(=O)c1c(F)c(F)c(F)c(F)c1F.[Na+] [Example 59, Sodium (R)-2-hydroxy-4-(2-((2,3,4,5,6-pentafluoro-N-methylphenyl)sulfonamido)-N-(4-(tetrahydro-2H-pyran-4-yl)benzyl)propanamido)benzoate]
In vitro [6]
  Papp B→A: 7 nm/s
  recovery: 31%
In vitro [2]
  half-life: ≤ 5 min
In vitro [3]
  half-life: ≤ 5 min
Caco-2 cells
  Caco-2 Cells Recovery B to A: 40%
[4]
  Metabolic Stability Half-Life MLM: 4 min
[5]
  Metabolic Stability Half-Life HLM: 5 min

## O=C(O)c1ccc(N(Cc2ccc(C3CCOCC3)cc2)C(=O)[C@H]2CCCN2S(=O)(=O)c2c(F)c(F)c(F)c(F)c2F)c(F)c1 [Example 60, (R)-3-Fluoro-4-(1-((perfluorophenyl)sulfonyl)-N-(4-(tetrahydro-2H-pyran-4-yl)benzyl)pyrrolidine-2-carboxamido)benzoic acid]
In vitro [6]
  Papp: 2 nm/s
In vitro [2]
  half-life: 26 min
In vitro [3]
  half-life: 54 min
Caco-2 cells
  Caco-2 Cells Permeability A to B: 0.1
  Caco-2 Cells Recovery A to B: 8%
  Caco-2 Cells Permeability B to A: 0.1
  Caco-2 Cells Recovery B to A: 67%
